Test results: US8815891B2, “Tricyclic derivative or pharmaceutically acceptable salts thereof, preparation method thereof, and pharmaceutical composition containing the same” (Je Il Pharmaceutical Co., Ltd., priority 2008, dated 2014)
Counter-ions that a name gives are not always drawn.

Each molecule was assayed against PARP-1 enzyme (Homo sapiens (Human), UniProt P09874) (assay: Poly(ADP-ribose)polymerase [PARP-1] enzyme inhibitory activity (Trevigen PARP Assay kit)). Conditions: not given.
PARP-1 enzyme, sequence (P09874 whole entry): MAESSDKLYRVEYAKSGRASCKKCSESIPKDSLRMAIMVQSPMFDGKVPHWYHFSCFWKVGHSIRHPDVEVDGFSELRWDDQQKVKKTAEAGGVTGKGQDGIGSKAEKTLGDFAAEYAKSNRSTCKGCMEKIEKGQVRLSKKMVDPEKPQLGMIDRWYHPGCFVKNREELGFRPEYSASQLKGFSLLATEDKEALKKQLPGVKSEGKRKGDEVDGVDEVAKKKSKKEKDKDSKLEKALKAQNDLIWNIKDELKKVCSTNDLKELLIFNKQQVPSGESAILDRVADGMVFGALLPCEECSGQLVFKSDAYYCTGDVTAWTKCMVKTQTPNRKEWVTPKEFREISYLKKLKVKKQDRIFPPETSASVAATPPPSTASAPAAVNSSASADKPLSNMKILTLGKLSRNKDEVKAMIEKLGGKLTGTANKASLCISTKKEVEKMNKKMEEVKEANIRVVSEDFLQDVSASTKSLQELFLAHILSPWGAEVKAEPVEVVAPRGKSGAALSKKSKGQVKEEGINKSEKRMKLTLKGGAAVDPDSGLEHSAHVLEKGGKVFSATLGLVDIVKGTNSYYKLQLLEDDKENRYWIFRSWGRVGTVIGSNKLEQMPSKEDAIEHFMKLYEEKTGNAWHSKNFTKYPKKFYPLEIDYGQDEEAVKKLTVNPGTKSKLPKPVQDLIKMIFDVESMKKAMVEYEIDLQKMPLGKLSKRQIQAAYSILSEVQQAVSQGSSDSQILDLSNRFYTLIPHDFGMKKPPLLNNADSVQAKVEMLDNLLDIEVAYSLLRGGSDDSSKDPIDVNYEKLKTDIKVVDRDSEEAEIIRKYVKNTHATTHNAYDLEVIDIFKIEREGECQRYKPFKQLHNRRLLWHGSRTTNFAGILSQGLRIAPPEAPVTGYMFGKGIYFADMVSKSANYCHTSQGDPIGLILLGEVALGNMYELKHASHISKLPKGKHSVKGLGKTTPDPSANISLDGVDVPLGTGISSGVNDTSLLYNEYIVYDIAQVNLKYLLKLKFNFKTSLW
Format: biochemical
Experimental: The activity of the compounds according to the present invention to inhibit the PARP-1 enzyme was examined using a PARP Assay kit (4671-096-K) purchased from Trevigen. The assay was performed following a modified previously reported method by Lee et al [Methods Find, Exp. Clin. Pharmacol., 27, 617-622, 2005].
Histone was coated on 384-well plate, which is a small volume PS plate (784101) of Greiner Bio-One, and left at 25° C. for 2 hours. After that, the plate was rinsed four times with PBS (7.5 mM Na2HPO4, 2.5 mM NaH2PO4, 145 mM NaCl, pH 7.4), and in order to prevent non-specific reaction, the Strep-diluent (provided from kit of Trevigen) was added and left at 25° C. for one hour. After one hour, the plate was again rinsed with PBS four times, and the compounds of the Examples in various concentrations were put into reactant containing PARP-1 enzyme (0.12 unit/well), 2×PARP cocktail (1.95 mM NAD^+, 50 uM biotinylated NAD^+, and activated DNA in 50 mM Tris pH 8.0, 25 mM MgCl2) and allowed to react at 25° C. for 30 minutes. After 30 minutes, each well was rinsed with PBS four times, and in order to measure the amount of rybosylation by the PARP enzyme, strepavidin-linked peroxidase (Strep-HRP, 1:1000 diluted) was added and allowed to react at 37° C. for 30 minutes. The plate was rinsed with PBS four times, and TACS-Sapphire substrate was put and allowed to react at 25° C. for 10 minutes so that color reaction occurred. Finally, the reaction was terminated by the addition of 0.2 N HCl. The amount of histone ribosylation formed by PARP-1 enzyme was quantified at 450 nm using Wallac EnVision™ (PerkinElmer Oy, Turku, Finland).
Molecule COc1cc(CN2CCC(=NO)CC2)cc2[nH]c(=O)c3c(c12)NCCC3 [Example 79, 8-{[4-(Hydroxyimino)piperidine-1-yl]methyl}-10-methoxy-1,2,3,4-tetrahydrobenzo[h][1,6]naphthyridine-5(6H)-one trihydrochloride] has an IC50 of 180 nM.

Same assay, conditions: PARP-1 enzyme, histone ribosylation, 450 nm; read-out: PARP-1 Inhibitory activity IC50
With O=c1[nH]c2cc(CNCC(F)(F)F)ccc2c2c1CCCN2 [Example 62, 8-[(2,2,2-Trifuloroethylamino)methyl]-1,2,3,4-tetrahydrobenzo[h][1,6]naphthyridine-5(6H)-one dihydrochloride] the IC50 was greater than 4000 nM.
With O=c1[nH]c2cc(Cn3ccnc3)ccc2c2c1CCCN2 [Example 64, 8-[(1H-Imidazole-1-yl)methyl]-1,2,3,4-tetrahydrobenzo[h][1,6]naphthyridine-5(6H)-one hydrochloride] the IC50 was 540 nM.
With O=c1[nH]c2cc(Cn3cccc3)ccc2c2c1CCCN2 [Example 65, 8-[(1H-Pyrrole-1-yl)methyl]-1,2,3,4-tetrahydrobenzo[h][1,6]naphthyridine-5(6H)-one hydrochloride] the IC50 was 1540 nM.
O=c1[nH]c2cc(CN3CCCC3)ccc2c2c1CCCN2 [Example 67, 8-(Pyrrolidine-1-ylmethyl)-1,2,3,4-tetrahydrobenzo[h][1,6]naphthyridine-5(6H)-one dihydrochloride] gave an IC50 of less than 1000 nM.
Work on CN1CCCc2c1c1ccc(CN3CCCCC3)cc1[nH]c2=O [Example 69, 1-Methyl-8-(piperidine-1-ylmethyl)-1,2,3,4-tetrahydrobenzo[h][1,6]naphthyridine-5(6H)-one dihydrochloride] yielded an IC50 greater than 4000 nM.
Work on CCN(C)Cc1cc(OC)c2c3c(c(=O)[nH]c2c1)CCCN3 [Example 76, 8-{[Ethyl(methyl)amino]methyl}-10-methoxy-1,2,3,4-tetrahydrobenzo[h][1,6]naphthyridine-5(6H)-one] yielded an IC50 of 50 nM.
In the case of COc1cc(CN(C)CCCl)cc2[nH]c(=O)c3c(c12)NCCC3 [Example 85, 8-{[(2-Chloroethyl)(methyl)amino]methyl}-10-methoxy-1,2,3,4-tetrahydrobenzo[h][1,6]naphthyridine-5(6H)-one dihydrochloride], the IC50 is reported as 180 nM.

Same assay, conditions: dihydrochloride; read-out: PARP-1 Inhibitory activity IC50
In the case of O=c1[nH]c2cc(CN3CCCC3)ccc2c2c1CCCN2 [Example 67, 8-(Pyrrolidine-1-ylmethyl)-1,2,3,4-tetrahydrobenzo[h][1,6]naphthyridine-5(6H)-one dihydrochloride], the IC50 is reported as 760 nM.

Same assay, conditions: read-out: PARP-1 Inhibitory activity IC50
Work on CN(CCC(=O)O)Cc1ccc2c3c(c(=O)[nH]c2c1)CCCN3 [Example 58, 3-{Methyl[(5-oxo-1,2,3,4,5,6-hexahydrobenzo[h][1,6]naphthyridine-8-yl)methyl]amino}propanoic acid dihydrochloride] yielded an IC50 of 920 nM.
CC(C)N(C)Cc1ccc2c3c(c(=O)[nH]c2c1)CCCN3 [Example 59, 8-{[Isopropyl(methyl)amino]methyl}-1,2,3,4-tetrahydrobenzo[h][1,6]naphthyridine-5(6H)-one dihydrochloride] showed an IC50 of 190 nM.
For COCCN(C)Cc1ccc2c3c(c(=O)[nH]c2c1)CCCN3 [Example 60, 8-{[(2-Methoxyethyl)(methyl)amino]methyl}-1,2,3,4-tetrahydrobenzo[h][1,6]naphthyridine-5(6H)-one dihydrochloride], the IC50 was 120 nM.
N#CCNCc1ccc2c3c(c(=O)[nH]c2c1)CCCN3 [Example 63, 2-[(5-Oxo-1,2,3,4,5,6-hexahydrobenzo[h][1,6]naphthyridine-8-yl)methylamino]acetonitrile dihydrochloride] gave an IC50 of 1020 nM.
With CCN(CC)Cc1ccc2c3c(c(=O)[nH]c2c1)CCCN3C [Example 68, 8-[(Diethylamino)methyl]-1-methyl-1,2,3,4-tetrahydrobenzo[h][1,6]naphthyridine-5(6H)-one dihydrochloride] the IC50 was 1190 nM.
CN1CCCc2c1c1ccc(CN3CCOCC3)cc1[nH]c2=O [Example 70, 1-Methyl-8-(morpholinomethyl)-1,2,3,4-tetrahydrobenzo[h][1,6]naphthyridine-5(6H)-one dihydrochloride] gave an IC50 of 1090 nM.
CCN(C)Cc1ccc2c3c(c(=O)[nH]c2c1)CCCN3C [Example 71, 8-{[Ethyl(methyl)amino]methyl}-1-methyl-1,2,3,4-tetrahydrobenzo[h][1,6]naphthyridine-5(6H)-one dihydrochloride] was tested, and the IC50 was 3000 nM.
Work on CCNCc1cc(OC)c2c3c(c(=O)[nH]c2c1)CCCN3 [Example 75, 8-[(Ethylamino)methyl]-10-methoxy-1,2,3,4-tetrahydrobenzo[h][1,6]naphthyridine-5(6H)-one dihydrochloride] yielded an IC50 of 50 nM.
Work on COc1cc(CN2CCCC2)cc2[nH]c(=O)c3c(c12)NCCC3 [Example 77, 10-Methoxy-8-(pyrrolidine-1-ylmethyl)-1,2,3,4-tetrahydrobenzo[h][1,6]naphthyridine-5(6H)-one dihydrochloride] yielded an IC50 of 50 nM.
COc1cc(CN2CCC(=O)CC2)cc2[nH]c(=O)c3c(c12)NCCC3 [Example 78, 10-Methoxy-8-[(4-oxopiperidine-1-yl)methyl]-1,2,3,4-tetrahydrobenzo[h][1,6]naphthyridine-5(6H)-one dihydrochloride] was tested, and the IC50 was 110 nM.
For CON=C1CCN(Cc2cc(OC)c3c4c(c(=O)[nH]c3c2)CCCN4)CC1 [Example 80, 10-Methoxy-8-[(4-(methoxyimino)piperidine-1-yl)methyl]-1,2,3,4-tetrahydrobenzo[h][1,6]naphthyridine-5(6H)-one trihydrochloride], the IC50 was 140 nM.
COCCN(C)Cc1cc(OC)c2c3c(c(=O)[nH]c2c1)CCCN3 [Example 81, 10-Methoxy-8-{[(2-methoxyethyl)(methyl)amino]methyl}-1,2,3,4-tetrahydrobenzo[h][1,6]naphthyridine-5(6H)-one dihydrochloride] was tested, and the IC50 was 110 nM.
COc1cc(CN2CC=CC2)cc2[nH]c(=O)c3c(c12)NCCC3 [Example 82, 8-[(2,5-Dihydro-1H-pyrrole-1-yl)methyl]-10-methoxy-1,2,3,4-tetrahydrobenzo[h][1,6]naphthyridine-5(6H)-one dihydrochloride] gave an IC50 of 60 nM.
COc1cc(CN(C)CCOC(C)C)cc2[nH]c(=O)c3c(c12)NCCC3 [Example 83, 8-{[(2-Isopropoxyethyl)(methyl)amino]methyl}-10-methoxy-1,2,3,4-tetrahydrobenzo[h][1,6]naphthyridine-5(6H)-one dihydrochloride] showed an IC50 of 320 nM.
In the case of COc1cc(CN2CCCCC2)cc2[nH]c(=O)c3c(c12)NCCC3 [Example 84, 10-Methoxy-8-(piperidine-1-ylmethyl)-1,2,3,4-tetrahydrobenzo[h][1,6]naphthyridine-5(6H)-one dihydrochloride], the IC50 is reported as 150 nM.
In the case of CCN(CC)Cc1cc(OC)c2c3c(c(=O)[nH]c2c1)CCCN3 [Example 86, 8-[(Diethylamino)methyl]-10-methoxy-1,2,3,4-tetrahydrobenzo[h][1,6]naphthyridine-5(6H)-one dihydrochloride], the IC50 is reported as 110 nM.
Work on COc1cc(CNC(C)C)cc2[nH]c(=O)c3c(c12)NCCC3 [Example 88, 8-[(Isopropylamino)methyl]-10-methoxy-1,2,3,4-tetrahydrobenzo[h][1,6]naphthyridine-5 (6H)-one dihydrochloride] yielded an IC50 of 110 nM.
Work on COc1cc(CNC2CCCC2)cc2[nH]c(=O)c3c(c12)NCCC3 [Example 89, 8-[(Cyclopentylamino)methyl]-10-methoxy-1,2,3,4-tetrahydrobenzo[h][1,6]naphthyridine-5(6H)-one dihydrochloride] yielded an IC50 of 270 nM.
For COc1cc(CN2CC(C)OC(C)C2)cc2[nH]c(=O)c3c(c12)NCCC3 (stereo not drawn) [Example 90, 8-[(2,6-Dimethylmorpholino)methyl]-10-methoxy-1,2,3,4-tetrahydrobenzo[h][1,6]naphthyridine-5(6H)-one dihydrochloride], the IC50 was 780 nM.
Work on COc1cc(CN(C)C2CCCC2)cc2[nH]c(=O)c3c(c12)NCCC3 [Example 92, 8-{[Cyclopentyl(methyl)amino]methyl}-10-methoxy-1,2,3,4-tetrahydrobenzo[h][1,6]naphthyridine-5(6H)-one dihydrochloride] yielded an IC50 of 190 nM.
COc1cc(CN(C)C(C)C)cc2[nH]c(=O)c3c(c12)NCCC3 [Example 93, 8-{[Isopropyl(methyl)amino]methyl}-10-methoxy-1,2,3,4-tetrahydrobenzo[h][1,6]naphthyridine-5(6H)-one dihydrochloride] showed an IC50 of 140 nM.
COc1cc(CN(C)CCF)cc2[nH]c(=O)c3c(c12)NCCC3 [Example 94, 8-{[(2-Fluoroethyl)(methyl)amino]methyl}-10-methoxy-1,2,3,4-tetrahydrobenzo[h][1,6]naphthyridine-5(6H)-one dihydrochloride] gave an IC50 of 170 nM.
Work on O=c1[nH]c2cc(Cc3nnn[nH]3)ccc2c2c1CCCN2 [Example 95, 8-[(1H-tetrazole-5-yl)methyl]-1,2,3,4-tetrahydrobenzo[h][1,6]naphthyridine-5(6H)-one hydrochloride] yielded an IC50 of 490 nM.
Work on COc1cc(CNN2CCOCC2)cc2[nH]c(=O)c3c(c12)NCCC3 [Example 96, 10-Methoxy-8-[(morpholinoamino)methyl]-1,2,3,4-tetrahydrobenzo[h][1,6]naphthyridine-5(6H)-one trihydrochloride] yielded an IC50 of 770 nM.
